The text below walks through data of ChEMBL document CHEMBL5465560, “Selectivity Literature for EUbOPEN Chemogenomic Library” (2024).

In test [1] the target is T1, Serine/threonine-protein kinase STK11 (Homo sapiens) (UniProt Q15831).
T1 sequence (whole entry): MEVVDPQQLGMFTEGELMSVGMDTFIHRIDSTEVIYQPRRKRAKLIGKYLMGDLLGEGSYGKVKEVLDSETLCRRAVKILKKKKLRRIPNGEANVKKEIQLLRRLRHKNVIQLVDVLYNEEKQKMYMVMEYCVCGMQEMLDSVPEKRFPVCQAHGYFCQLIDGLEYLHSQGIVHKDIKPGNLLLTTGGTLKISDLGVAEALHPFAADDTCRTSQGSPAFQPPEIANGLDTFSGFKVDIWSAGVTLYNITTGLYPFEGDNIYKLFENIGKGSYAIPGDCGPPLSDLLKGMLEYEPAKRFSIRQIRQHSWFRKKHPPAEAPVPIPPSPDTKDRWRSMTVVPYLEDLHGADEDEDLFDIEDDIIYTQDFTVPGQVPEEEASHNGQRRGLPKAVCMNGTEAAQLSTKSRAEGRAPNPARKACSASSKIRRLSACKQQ
In words: Selectivity interaction (ActivX KiNativ screen (ex vivo kinase selectivity in human PBMCs)) EUB0001619a STK11. It is filed as cell-based. The settings on record: PBMC, at 1 µM.

In test [2] the target is Tyrosine-protein kinase ABL1 (Homo sapiens, UniProt P00519). The test is described as follows: Selectivity interaction (ActivX KiNativ screen (ex vivo kinase selectivity in human PBMCs)) EUB0001619a ABL1. It is filed as cell-based. The conditions noted are these: PBMC, at 1 µM.
Test [3] has as its target T2, Ephrin type-B receptor 2 (Homo sapiens) (UniProt P29323).
T2 sequence (whole entry): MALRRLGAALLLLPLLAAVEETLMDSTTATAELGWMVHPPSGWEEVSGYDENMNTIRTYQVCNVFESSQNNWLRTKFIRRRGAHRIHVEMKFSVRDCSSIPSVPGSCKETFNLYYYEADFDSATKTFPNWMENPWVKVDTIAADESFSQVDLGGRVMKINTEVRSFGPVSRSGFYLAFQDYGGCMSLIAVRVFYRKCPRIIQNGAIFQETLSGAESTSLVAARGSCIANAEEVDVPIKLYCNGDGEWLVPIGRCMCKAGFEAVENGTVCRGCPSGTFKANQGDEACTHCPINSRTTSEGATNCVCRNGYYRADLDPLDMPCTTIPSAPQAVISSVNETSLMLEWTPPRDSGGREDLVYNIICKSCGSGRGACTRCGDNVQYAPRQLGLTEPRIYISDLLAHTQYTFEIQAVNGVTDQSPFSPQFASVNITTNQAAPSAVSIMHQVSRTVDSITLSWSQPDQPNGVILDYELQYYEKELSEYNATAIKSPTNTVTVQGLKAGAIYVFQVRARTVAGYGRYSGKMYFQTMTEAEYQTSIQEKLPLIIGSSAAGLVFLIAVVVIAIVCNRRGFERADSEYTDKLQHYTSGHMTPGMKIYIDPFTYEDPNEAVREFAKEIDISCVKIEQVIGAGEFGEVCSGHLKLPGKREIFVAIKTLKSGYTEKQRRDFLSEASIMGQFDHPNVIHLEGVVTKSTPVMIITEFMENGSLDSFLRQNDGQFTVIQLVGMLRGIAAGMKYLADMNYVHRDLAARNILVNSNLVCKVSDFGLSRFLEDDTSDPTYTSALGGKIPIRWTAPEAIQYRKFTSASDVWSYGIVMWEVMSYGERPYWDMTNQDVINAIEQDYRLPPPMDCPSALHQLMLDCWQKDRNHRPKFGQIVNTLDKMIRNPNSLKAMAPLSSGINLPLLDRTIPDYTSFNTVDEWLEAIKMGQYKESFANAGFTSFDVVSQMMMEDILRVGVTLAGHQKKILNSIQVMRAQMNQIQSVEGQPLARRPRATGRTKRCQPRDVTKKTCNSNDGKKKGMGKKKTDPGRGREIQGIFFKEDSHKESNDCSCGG
The test is described as follows: Selectivity interaction (Kinase panel (Invitrogen)) EUB0000639a EPHB2. The settings on record: at 200 nM.

For test [4], the target named is T3, Muscle, skeletal receptor tyrosine-protein kinase (Homo sapiens) (UniProt O15146).
T3 sequence (whole entry): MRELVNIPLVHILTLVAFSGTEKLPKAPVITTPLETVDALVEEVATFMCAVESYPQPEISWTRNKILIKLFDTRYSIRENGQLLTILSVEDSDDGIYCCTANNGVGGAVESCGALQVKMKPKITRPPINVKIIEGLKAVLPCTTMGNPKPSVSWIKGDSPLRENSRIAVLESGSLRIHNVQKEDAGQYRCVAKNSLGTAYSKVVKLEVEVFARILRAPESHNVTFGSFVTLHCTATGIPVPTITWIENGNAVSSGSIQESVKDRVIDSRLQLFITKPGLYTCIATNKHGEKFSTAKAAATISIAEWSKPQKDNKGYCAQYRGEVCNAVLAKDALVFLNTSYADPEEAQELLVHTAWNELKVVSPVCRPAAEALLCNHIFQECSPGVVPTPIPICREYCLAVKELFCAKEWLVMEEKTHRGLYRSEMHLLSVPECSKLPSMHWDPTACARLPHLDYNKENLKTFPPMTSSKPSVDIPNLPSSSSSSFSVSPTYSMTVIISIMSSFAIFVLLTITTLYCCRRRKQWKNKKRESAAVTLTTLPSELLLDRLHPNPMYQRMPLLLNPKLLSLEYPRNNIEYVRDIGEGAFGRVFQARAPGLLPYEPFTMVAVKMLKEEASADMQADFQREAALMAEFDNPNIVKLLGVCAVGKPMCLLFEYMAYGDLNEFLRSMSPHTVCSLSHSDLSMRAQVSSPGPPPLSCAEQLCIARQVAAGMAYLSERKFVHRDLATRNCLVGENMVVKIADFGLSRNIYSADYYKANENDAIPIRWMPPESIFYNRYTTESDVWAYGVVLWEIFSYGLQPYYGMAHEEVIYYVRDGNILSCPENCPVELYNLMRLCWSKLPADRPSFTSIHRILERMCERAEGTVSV
The test is described as follows: Selectivity interaction (Upstate Kinase Profiler service (Millipore)) EUB0000056c MUSK. The conditions noted are these: at 1 µM.

Sequence of Tyrosine-protein kinase ABL1 (P00519 whole entry): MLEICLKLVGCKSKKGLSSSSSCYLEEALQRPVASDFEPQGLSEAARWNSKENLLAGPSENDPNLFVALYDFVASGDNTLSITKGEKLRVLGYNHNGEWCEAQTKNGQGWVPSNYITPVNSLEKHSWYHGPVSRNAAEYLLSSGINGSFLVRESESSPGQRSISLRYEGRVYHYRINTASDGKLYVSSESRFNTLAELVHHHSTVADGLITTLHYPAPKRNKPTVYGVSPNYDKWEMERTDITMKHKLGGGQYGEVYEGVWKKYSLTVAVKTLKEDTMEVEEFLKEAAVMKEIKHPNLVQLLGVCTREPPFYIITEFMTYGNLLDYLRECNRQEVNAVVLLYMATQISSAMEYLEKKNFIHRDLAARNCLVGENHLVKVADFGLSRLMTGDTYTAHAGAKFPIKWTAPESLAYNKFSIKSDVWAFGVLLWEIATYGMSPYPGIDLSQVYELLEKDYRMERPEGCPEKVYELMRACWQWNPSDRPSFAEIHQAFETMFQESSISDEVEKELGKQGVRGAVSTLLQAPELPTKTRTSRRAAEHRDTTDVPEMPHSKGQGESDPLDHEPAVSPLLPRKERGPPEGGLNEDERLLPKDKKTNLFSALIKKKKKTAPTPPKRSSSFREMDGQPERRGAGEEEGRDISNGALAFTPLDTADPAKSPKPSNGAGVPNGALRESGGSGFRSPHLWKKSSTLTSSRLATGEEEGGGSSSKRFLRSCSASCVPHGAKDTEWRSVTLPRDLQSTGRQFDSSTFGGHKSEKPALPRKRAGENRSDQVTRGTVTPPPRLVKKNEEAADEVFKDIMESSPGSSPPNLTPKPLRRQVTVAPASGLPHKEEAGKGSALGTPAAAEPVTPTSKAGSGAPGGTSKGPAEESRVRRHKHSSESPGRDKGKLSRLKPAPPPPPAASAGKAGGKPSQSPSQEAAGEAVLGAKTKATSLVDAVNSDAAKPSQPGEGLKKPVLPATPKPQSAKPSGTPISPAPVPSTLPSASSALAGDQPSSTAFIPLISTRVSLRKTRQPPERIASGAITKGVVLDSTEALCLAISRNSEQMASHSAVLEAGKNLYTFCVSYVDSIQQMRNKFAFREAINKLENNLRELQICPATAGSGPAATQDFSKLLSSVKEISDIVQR

On to `N#Cc1cccc(-c2c[nH]c3ncnc(N4CCOCC4)c23)c1`, for which the % of inhibition in test [1] was 17%; in test [2], -53%. For `CC[C@@H]1[C@H](F)C(=O)N[C@@H]1COc1nccc2cc(C(N)=O)c(OC)cc12` [ZIMLOVISERTIB], the % of inhibition in test [3] was 0.413%. With `Cc1ccc(-c2ccc3c(ccc4sc5c(c43)NC[C@@H](C)NC5=O)n2)cn1`, the % of inhibition in test [4] was -7%.
